Tests used:
[1] = target: Estrogen receptor beta (Homo sapiens, UniProt Q92731)
Description: Binding affinity for estrogen receptor beta

[2] = target: T1, Estrogen receptor (Homo sapiens, UniProt P03372)
T1 sequence (P03372 whole entry): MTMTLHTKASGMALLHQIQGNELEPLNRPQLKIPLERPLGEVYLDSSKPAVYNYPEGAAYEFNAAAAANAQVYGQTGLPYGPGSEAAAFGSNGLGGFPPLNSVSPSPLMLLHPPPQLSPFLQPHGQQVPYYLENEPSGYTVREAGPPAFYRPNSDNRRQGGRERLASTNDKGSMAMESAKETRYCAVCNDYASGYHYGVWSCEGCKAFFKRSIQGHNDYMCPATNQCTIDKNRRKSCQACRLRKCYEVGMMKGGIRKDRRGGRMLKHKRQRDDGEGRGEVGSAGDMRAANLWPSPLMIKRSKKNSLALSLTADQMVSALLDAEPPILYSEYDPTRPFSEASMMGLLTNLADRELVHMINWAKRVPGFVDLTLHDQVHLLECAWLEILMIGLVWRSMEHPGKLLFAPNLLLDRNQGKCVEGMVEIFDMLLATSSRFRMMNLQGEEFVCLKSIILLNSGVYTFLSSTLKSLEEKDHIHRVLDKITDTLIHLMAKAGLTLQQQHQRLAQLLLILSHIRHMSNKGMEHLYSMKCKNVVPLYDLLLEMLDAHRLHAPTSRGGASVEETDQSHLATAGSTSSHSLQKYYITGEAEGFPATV
Description: Binding affinity for estrogen receptor alpha

[3] = target: Estrogen receptor (Homo sapiens, UniProt Q92731+P03372)
Description: Inhibition of estradiol-stimulated MCF-7 breast adenocarcinoma cell proliferation

Sequence of Estrogen receptor beta (Q92731 whole entry): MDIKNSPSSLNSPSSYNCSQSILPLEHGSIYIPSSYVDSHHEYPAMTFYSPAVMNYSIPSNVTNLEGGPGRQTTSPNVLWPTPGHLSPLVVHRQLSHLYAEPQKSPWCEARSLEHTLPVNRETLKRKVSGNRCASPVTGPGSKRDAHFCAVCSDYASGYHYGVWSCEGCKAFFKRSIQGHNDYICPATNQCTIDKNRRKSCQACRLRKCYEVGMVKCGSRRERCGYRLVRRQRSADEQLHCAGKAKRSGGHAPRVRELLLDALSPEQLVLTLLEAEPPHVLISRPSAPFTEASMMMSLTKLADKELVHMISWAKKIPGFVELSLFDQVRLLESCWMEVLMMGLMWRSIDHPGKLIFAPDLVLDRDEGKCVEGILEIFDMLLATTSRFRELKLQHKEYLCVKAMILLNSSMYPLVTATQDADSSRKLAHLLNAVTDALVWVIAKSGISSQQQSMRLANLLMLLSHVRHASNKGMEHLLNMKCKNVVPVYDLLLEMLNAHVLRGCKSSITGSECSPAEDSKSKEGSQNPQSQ

SMILES | Ki [1] [nM] | Ki [2] [nM] | IC50 [3] [nM]
Oc1ccc(C2CCc3cc(O)ccc3N2)cc1 (stereo not given) | 65 | 170 | –
Oc1ccc(-c2ccc3cc(O)ccc3n2)cc1 | 35 | 310 | –
O=C(c1ccc(OCCN2CCCCC2)cc1)N1c2ccc(O)cc2CCC1c1ccc(O)cc1 (stereo not given) | > 1000 | – | 990
Oc1cccc(C2CCc3cc(O)ccc3N2Cc2ccc(OCCN3CCCCC3)cc2)c1 (stereo not given) | 5.5 | – | –

The remaining lines, values ahead:

Ki [1] [nM] | Ki [2] [nM] | IC50 [3] [nM] | SMILES
4 | 1.7 | 490 | Oc1ccc2c(c1)CCC(c1ccccc1)N2Cc1ccc(OCCN2CCCCC2)cc1 (stereo not given)
> 1000 | 37 | 590 | O=C(c1ccc(OCCN2CCCCC2)cc1)N1c2ccc(O)cc2CCC1c1cccc(O)c1 (stereo not given)
– | 1.1 | 68 | Oc1ccc(C2CCc3cc(O)ccc3N2Cc2ccc(OCCN3CCCC3)cc2)cc1 (stereo not given)

Source: ChEMBL document CHEMBL1136521, “Tetrahydroquinoline-based selective estrogen receptor modulators (SERMs)” (Bioorg Med Chem Lett, 2003)
